{
  "source": "patent US20230372331A1",
  "about": "“PHARMACEUTICAL COMPOSITION” (ANXO PHARMACEUTICAL CO., LTD., priority 2022, published 2023)",
  "test": "Solubility of cariprazine forms in acetate medium",
  "type": "physicochemical",
  "excerpt": "Different drug solubilities of cariprazine HCl and cariprazine base could be the reason to affect the release of cariprazine in the pharmaceutical compositions. […] The release profile of cariprazine in pharmaceutical composition with combo cariprazine base and cariprazine HCl were between pharmaceutical compositions B-752H-TF8-N and C-752H-TF8-N.",
  "note": "Where a name gives a salt, the structure may show the parent alone.",
  "data": [
    {"smiles": "CN(C)C(=O)N[C@H]1CC[C@H](CCN2CCN(c3cccc(Cl)c3Cl)CC2)CC1", "note": "[Cariprazine HCl, cariprazine HCl]", "values": [
      {"measurement": "solubility in acetate medium (in words)", "result": "higher solubility in acetate medium than cariprazine base"}
    ]}
  ]
}
